Patent publication US12121523B2, “Method of treatment of attention deficit/hyperactivity disorder (ADHD)” (Supernus Pharmaceuticals, Inc., priority 2008, dated 2024)

Experiments:
5-HT1D = 5-HT1D (Rattus norvegicus, UniProt P28565); conditions: 10 μM viloxazine; [3H]serotonin 1 nM; 60 min/22° C.
Text: (§1) Briefly, recombinant 5-HT1B OR 5-HT7 receptors were expressed in a CHO cell line. The receptors were then saturated with a tritiated receptor-specific ligand at concentrations known to be saturating.

5-HT6 (h) = 5-HT6 (h) (Homo sapiens, UniProt P50406); conditions: 10 μM viloxazine; [3H]LSD 2 nM; 120 min/37° C.
Text: as §1

5-HT3 (h) = 5-HT3 (h) (Homo sapiens, UniProt P46098); conditions: 10 μM viloxazine; [3H]BRL 43694 0.5 nM; 120 min/22° C.
Text: as §1

5-HT4e (h) = 5-HT4e (h) (Homo sapiens, UniProt Q13639); conditions: 10 μM viloxazine; [3H]GR 113808 0.3 nM; 60 min/37° C.
Text: as §1

5-HT5A (h) = 5-HT5A (h) (Homo sapiens, UniProt P47898); conditions: 10 μM viloxazine; [3H]LSD 1 nM; 60 min/37° C.
Text: as §1

[1] = biological target: noradrenergic reuptake transporters (Homo sapiens, UniProt P23975); conditions: Tatsumi et al 1997; quantity type not given; cited from earlier work
5-HT1B (h) = 5-HT1B (h) (Homo sapiens, UniProt P28222)
Method: The apparent dissociation constants for antagonists Kb were calculated using the modified Cheng Prusoff equation.

Chain of 5-HT1B (h) (P28222 whole entry): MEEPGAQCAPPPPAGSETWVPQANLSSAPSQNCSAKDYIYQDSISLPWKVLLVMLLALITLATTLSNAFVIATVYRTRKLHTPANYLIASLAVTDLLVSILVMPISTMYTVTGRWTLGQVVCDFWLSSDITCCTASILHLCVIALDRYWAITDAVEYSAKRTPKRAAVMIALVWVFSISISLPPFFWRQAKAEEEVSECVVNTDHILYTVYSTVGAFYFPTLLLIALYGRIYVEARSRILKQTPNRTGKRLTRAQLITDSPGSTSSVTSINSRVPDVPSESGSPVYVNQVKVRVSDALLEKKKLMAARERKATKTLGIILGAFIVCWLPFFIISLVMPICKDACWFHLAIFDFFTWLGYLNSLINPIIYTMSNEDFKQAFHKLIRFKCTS
Chain of 5-HT6 (h) (P50406 whole entry): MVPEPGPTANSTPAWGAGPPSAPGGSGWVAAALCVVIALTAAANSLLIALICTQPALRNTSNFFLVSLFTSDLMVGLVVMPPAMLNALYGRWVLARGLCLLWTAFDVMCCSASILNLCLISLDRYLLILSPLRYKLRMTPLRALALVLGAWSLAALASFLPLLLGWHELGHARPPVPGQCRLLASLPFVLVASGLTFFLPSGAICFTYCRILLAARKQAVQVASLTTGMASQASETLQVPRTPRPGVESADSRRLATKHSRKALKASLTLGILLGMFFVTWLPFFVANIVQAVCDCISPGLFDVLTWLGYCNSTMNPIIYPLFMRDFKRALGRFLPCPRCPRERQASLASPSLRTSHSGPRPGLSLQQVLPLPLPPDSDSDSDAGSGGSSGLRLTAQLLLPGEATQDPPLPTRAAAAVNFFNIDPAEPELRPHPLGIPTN
Chain of noradrenergic reuptake transporters (P23975 whole entry): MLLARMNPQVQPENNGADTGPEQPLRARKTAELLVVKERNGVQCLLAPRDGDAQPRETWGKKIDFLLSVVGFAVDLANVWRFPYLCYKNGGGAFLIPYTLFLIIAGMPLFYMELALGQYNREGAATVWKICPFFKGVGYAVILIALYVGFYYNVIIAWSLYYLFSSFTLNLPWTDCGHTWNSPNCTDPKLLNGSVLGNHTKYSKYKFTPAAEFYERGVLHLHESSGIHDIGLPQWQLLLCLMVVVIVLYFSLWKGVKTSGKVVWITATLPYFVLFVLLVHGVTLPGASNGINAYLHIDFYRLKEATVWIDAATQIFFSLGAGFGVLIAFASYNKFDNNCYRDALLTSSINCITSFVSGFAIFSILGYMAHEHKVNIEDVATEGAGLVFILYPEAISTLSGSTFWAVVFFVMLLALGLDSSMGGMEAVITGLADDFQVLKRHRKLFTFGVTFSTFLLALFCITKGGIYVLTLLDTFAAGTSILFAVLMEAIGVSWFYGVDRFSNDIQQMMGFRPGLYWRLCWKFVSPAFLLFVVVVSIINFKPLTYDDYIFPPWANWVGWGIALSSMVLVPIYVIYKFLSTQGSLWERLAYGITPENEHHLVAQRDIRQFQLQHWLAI
Chain of 5-HT4e (h) (Q13639 1-378 isoform Q13639-5): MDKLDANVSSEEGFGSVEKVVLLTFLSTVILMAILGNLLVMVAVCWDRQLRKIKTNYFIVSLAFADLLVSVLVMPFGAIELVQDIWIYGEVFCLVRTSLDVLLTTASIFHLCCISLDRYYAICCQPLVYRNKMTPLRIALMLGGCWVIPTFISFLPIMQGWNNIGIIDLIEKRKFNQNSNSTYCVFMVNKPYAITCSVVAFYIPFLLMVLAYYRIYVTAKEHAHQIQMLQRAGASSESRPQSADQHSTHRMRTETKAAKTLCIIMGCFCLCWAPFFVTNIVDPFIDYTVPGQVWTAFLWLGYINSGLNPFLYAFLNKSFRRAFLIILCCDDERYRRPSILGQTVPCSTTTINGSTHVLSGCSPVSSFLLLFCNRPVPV
Chain of 5-HT1D (P28565 whole entry): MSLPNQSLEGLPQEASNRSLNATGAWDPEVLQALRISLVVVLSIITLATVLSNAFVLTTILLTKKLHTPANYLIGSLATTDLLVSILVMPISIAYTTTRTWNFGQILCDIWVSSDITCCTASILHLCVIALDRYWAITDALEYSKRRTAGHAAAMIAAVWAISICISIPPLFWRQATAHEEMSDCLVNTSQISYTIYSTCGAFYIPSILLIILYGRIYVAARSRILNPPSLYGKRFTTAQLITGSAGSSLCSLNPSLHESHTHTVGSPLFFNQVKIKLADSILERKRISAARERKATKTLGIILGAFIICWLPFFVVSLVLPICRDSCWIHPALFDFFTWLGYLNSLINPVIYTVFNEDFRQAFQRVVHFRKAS
Chain of 5-HT5A (h) (P47898 whole entry): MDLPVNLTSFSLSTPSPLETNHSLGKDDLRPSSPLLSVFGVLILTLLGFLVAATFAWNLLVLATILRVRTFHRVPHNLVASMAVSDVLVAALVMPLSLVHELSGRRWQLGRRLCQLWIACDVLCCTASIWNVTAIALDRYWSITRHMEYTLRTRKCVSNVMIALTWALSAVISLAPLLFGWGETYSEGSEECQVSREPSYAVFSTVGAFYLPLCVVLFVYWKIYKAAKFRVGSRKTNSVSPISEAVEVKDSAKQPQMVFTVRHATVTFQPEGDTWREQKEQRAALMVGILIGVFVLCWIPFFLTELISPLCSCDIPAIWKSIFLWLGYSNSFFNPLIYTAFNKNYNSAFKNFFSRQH
Chain of 5-HT3 (h) (P46098 24-478): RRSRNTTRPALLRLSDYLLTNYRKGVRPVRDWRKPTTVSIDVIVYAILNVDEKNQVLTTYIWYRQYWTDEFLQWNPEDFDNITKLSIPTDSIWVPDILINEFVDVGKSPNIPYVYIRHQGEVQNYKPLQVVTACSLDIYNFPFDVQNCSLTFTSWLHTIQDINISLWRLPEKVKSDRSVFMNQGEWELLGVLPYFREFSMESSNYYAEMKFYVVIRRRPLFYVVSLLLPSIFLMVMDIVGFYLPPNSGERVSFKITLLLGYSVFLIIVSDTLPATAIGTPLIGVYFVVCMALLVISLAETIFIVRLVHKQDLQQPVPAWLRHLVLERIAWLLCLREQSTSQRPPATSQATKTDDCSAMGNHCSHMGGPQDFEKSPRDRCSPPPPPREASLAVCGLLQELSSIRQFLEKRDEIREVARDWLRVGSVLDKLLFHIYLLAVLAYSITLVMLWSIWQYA

For Viloxazine, the “% Inhib.” value (5-HT1D) was 18%, the “% Inhib.” value (5-HT6 (h)) was 6% and the “% Inhib.” value (5-HT3 (h)) was 18%. For the same substance, the “% Inhib.” value (5-HT4e (h)) was 16%, the “% Inhib.” value (5-HT5A (h)) was 15% and the “inhibition of noradrenergic reuptake transporters” value [1] was 155 nM. For the same substance, the “antagonist activity (in words)” value (5-HT1B (h)) was “specific antagonist activity”.
